In patent publication US9629835B1, “Method for treating tau-associated diseases” (NATIONAL TAIWAN NORMAL UNIVERSITY, priority 2016, dated 2017):

How the values were obtained:
[1] = Cytotoxicity in tauRD-DsRed 293 cells; type: cell-based; details: human, 50% of viability
Method: (§1) TauRD-DsRed 293 cells were plated into 96-well plates, grown for 24 h, and treated with 0.1, 1, 10 μM of congo red (a known tau aggregation inhibitor), compound (I), compound (II), and compound (III) (SB216763) for 8 h. Then doxycycline (Dox; 1 μg/mL) was added for 3 days and DsRed fluorescence was assessed using a high content analysis system (HCA) system (ImageXpressMICRO, Molecular Devices).
Also, IC50 cytotoxicity of tauRD-DsRed 293 cells is shown in FIG. 2, wherein the standard line represents 50% of viability.

[2] = tested on: ΔK280 tauRD-DsRed 293 cells; assay: DsRed fluorescence (tau aggregation) in Tet-On ΔK280 tauRD-DsRed 293 cells, high content analysis; type: cell-based, human; details: for DsRed fluorescence intensity relative to untreated cells (100%): 10 μM, 8 h pre-treatment, doxycycline 3 days
Method: We used HEK-293 human cells expressing a DsRed-tagged proaggregation mutant (ΔK280) of the C-terminal repeat domain of tau (tauRD-Gln^244-Glu^372 of the longest tau^441 isoform). The recombinant tauRD-DsRed construct was under the control of a hybrid human cytomegalovirus (CMV)/TetO2 promoter that can be induced by adding doxycycline. The Tet-On ΔK280tauRD-DsRed293 cells were grown in medium containing blasticidin (5 μg/mL) and hygromycin (100 μg/mL) and were used for the following evaluation.
as §1
According to the fluorescence microscopy images of untreated cells, and cells treated with congo red, compound (I), compound (II), and SB216763, the quantification results are shown in FIG. 1 which were analyzed related to 100% fluorescence intensity of the untreated cells. […] Based on the results that described above, compound (I) and compound (II) have the ability to decrease tau-aggregation in tauRD-DsRed 293 cells (*p<0.05, **p<0.01).

[3] = tested on: mouse hippocampal primary culture cells; assay: Mouse hippocampal primary culture under tau toxicity induced by Wortmannin and GF 109203X; type: cell-based; details: 1 μM, 12 hours, with 10 nM Wortmannin and GF 109203X
Method: The mouse hippocampal primary culture cells were isolated from the hippocampi of C57BL/6J mouse embryos at days 16-18. On days in vitro (DIV) 4 and 7, 2 μM of cytosine arabinoside was added to the culture medium to reduce the glial cell populations. On DIV 9, the cells were treated with 10 nM of Wortmannin (WT) and GF 109203X (GFX) to induce tau hyperphosphorylation to mimic an AD condition.
1 μM of compound (I) or compound (II) were then added to the cells at DIV 9. Cells were harvested 12 hours later for immunocytochemical staining with NeuN (for neuron) and MAP2 (for neurite morphology) antibodies.
The quantification of neuron numbers (NeuN relative expression levels), neurite outgrowth, and the relative number of neuron branches are shown in FIG. 7 to FIG. 9 (*, vs. control; #, vs. WT+GFX. * p<0.05; **/##p<0.01; ###p<0.001). […] The results indicated significant neuronal protective effects of compound (I) and compound (II).

GSK-3β = assay: Western blot of total GSK-3β and phosphorylated GSK-3β (Ser9) in tauRD-DsRed SH-SY5Y cells; type: cell-based, human; details: 10 μM
Method: We used human neuroblastoma cells (SH-SY5Y) expressing a DsRed-tagged proaggregation mutant (ΔK280) of the C-terminal repeat domain of tau (tauRD-Gln^244-Glu^372 of the longest tau^441 isoform). The recombinant tauRD-DsRed construct was under the control of a hybrid human cytomegalovirus (CMV)/TetO2 promoter that can be induced by adding doxycycline. The Tet-On ΔK280 tauRD-DsRed SH-SY5Y cells were grown in medium containing blasticidin (5 μg/mL) and hygromycin (100 μg/mL) and were then used for the following evaluation. […]
First, SH-SY5Y tauRD-DsRed cells were seeded in 6-well plates (1×10^5/well) in a medium containing all-trans retinoic acid ([…] Sigma) for inducing the neural differentiation. […] Next, immunoreactive bands were detected using horseradish peroxidase-conjugated goat anti-mouse, goat anti-rabbit, or donkey anti-goat IgG antibodies (1:5000; GeneTex) and chemiluminescent substrate (Millipore) for evaluating the expression levels thereof in cells.
The expression levels of total GSK-3β and phosphorylated GSK-3β are shown in FIG. 3 and the quantifications thereof are shown in FIG. 4 (*p<0.05, ***p<0.001). […]

Recombinant human GSK-3β = target: T1, Recombinant human GSK-3β (Homo sapiens, UniProt P49841); assay: GSK-3β kinase activity, ADP-Glo Kinase Assay; type: biochemical
T1 construct: purchased Promega V1991
Method: GSK-3β kinase activity was measured in the presence of the tested compounds (I) and (II) using ADP-Glo™ Kinase Assay system (Promega). Recombinant human GSK-3β (Product code V1991, Promega) was used as the enzyme source, and the GSK-3β substrate was derived from human muscle glycogen synthase 1 peptide ([…](pS)EDEEE) which corresponded to a region of glycogen synthase that was phosphorylated by GSK-3β. Reactions were performed at 30° C. for 30 minutes in the 25 μL mixture that contained 25 μM ATP, 0.2 mg/mL GSK-3β substrate, 1 ng of GSK-3β, and serial dilutions of compound (I), compound (II), or compound (III). Kinase activity data were measured as relative light units (RLU) directly correlated with the amount of ADP produced.
The IC50 values of compound (I), compound (II), and compound (III) were determined by using SigmaPLOT software. […] When the concentration of compound (I) and compound (II) were […] μM, the residual activities of GSK-3β of compounds (I) and (II) were 36.1±1.1%, and 90.9±6.6%, respectively.

T1 sequence (P49841 whole entry): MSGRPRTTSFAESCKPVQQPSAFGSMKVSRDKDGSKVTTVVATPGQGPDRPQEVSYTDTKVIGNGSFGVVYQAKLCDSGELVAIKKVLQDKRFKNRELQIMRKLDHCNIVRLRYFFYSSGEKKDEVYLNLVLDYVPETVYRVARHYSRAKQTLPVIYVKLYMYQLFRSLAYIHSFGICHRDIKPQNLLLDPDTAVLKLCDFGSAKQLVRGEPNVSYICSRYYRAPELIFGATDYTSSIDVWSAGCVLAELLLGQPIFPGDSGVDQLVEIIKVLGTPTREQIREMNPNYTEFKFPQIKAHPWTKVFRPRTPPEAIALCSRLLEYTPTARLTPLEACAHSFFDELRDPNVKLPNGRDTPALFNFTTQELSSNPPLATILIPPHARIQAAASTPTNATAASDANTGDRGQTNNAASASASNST

SMILES	IC50 [1] [µM]	DsRed fluorescence intensity relative to untreated cells (100%) [2] [%]	neuronal protective effect (NeuN neuron number, neurite length, neurite branches) [3]	total GSK-3β expression vs untreated cells (GSK-3β)	remaining activity at 0.018 µM (Recombinant human GSK-3β; compound concentration 0.018 μM, read-out: residual activity of GSK-3β) [%]	IC50 (Recombinant human GSK-3β; recombinant human GSK-3β, 25 μM ATP, 30° C., 30 minutes) [µM]	effect on tauRD-DsRed fluorescence ([2]; 0.1, 1, 10 μM)
Cc1ccc(-c2cc(-c3ccncc3)nc3ccccc23)cc1 [compound (I)]	25.7	116	alleviate the reduction of neuronal survival rate, neurite length, and/or neurite branches	remained about the same without significant changes	36.1 ± 1.1	0.0002	–
Nc1c(/N=N/c2ccc(-c3ccc(/N=N/c4cc(S(=O)(=O)O)c5ccccc5c4N)cc3)cc2)cc(S(=O)(=O)O)c2ccccc12 [congo red]	–	110	–	–	–	–	–
CN1CC(C2=C(c3ccc(Cl)cc3Cl)C(=O)NC2=O)c2ccccc21 (centres unmarked) [compound (III), reference compound]	–	–	–	–	–	–	no effect
